# Square brackets hold non-standard residues; d marks the D form. Peptide text beside a SMILES is read from it. dHica = CC(C)C[C@@H](O)C(=O)O; NMeV = CN[C@H](C(=O)O)C(C)C; NMeA = CN[C@@H](C)C(=O)O; βAla = NCCC(=O)O
# Target: IN-GCN2 interaction (6xHis-IN / GST-GCN2) (UniProt P04585+Q9P2K8)
# Test: biochemical
# Assay type: binding, HIV-1 IN; human GCN2
# Details: IC50, inhibition of IN-GCN2 interaction, SAR study, fresh dilutions from powder; at least three independent experiments
# IN-GCN2 interaction (6xHis-IN / GST-GCN2), sequence (Q9P2K8 192-1024, other chains not shown): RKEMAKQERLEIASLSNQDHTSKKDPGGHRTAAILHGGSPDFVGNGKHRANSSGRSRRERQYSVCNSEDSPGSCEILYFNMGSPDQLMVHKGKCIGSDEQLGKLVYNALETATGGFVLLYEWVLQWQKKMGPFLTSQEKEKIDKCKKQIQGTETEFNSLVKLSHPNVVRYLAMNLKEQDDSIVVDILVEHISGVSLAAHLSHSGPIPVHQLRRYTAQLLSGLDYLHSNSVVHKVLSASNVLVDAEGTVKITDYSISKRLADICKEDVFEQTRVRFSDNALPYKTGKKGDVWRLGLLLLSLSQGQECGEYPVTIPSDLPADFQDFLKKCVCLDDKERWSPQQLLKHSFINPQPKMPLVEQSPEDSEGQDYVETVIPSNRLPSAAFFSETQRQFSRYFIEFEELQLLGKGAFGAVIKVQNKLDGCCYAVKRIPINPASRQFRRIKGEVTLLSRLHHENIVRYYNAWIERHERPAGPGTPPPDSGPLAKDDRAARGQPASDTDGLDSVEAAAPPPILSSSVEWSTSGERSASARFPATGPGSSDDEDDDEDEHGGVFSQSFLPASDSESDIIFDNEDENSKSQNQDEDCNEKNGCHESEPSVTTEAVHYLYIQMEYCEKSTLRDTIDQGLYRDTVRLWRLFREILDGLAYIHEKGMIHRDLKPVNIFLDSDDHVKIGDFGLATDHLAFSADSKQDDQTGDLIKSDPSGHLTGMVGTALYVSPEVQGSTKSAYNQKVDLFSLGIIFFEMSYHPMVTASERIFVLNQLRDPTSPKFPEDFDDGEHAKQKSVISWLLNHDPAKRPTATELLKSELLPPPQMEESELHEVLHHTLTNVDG
row,Compound,IC50 [µM]
1,CCC1(O)CC(OC2CC(N(C)C)C(OC3CC(O)C(OC4CC(O)C(O)C(C)O4)C(C)O3)C(C)O2)c2c(cc3c(c2O)C(=O)c2c(O)ccc(O)c2C3=O)C1C(=O)OC (stereo not shown) [NSC265211],> 100

# Same assay, conditions: dose-response assessment
row,Compound,"effect on IN-GCN2 interaction in dose-response, in words"
1,CC(=O)O[C@@H]1C[C@H]2O[C@@H]3C=C(C)CC[C@]3(C)[C@]1(C)[C@]21CO1 [NSC267023],inactive

# Same assay, conditions: read-out: inhibition of IN-GCN2 interaction
row,Compound,inhibition at 100 µM [%]
1,CCC1(O)CC(OC2CC(N(C)C)C(OC3CC(O)C(OC4CC(O)C(O)C(C)O4)C(C)O3)C(C)O2)c2c(cc3c(c2O)C(=O)c2c(O)ccc(O)c2C3=O)C1C(=O)OC (stereo not shown) [NSC265211],~60

# Same assay, conditions: screen, single dose 100 µM, single replicate; residual AlphaLISA signal normalized to DMSO control
row,Compound,IN-GCN2 interaction (%)
1,CC(=O)O[C@H]1C[C@]2(O)[C@@H]3CC[C@@H]4C[C@@H](O)CC[C@]4(C)[C@H]3CC[C@]2(C)[C@H]1C1=CC(=O)OC1 [NSC148790],114.66
2,C[C@@H]1[C@H](O)[C@@H](C)/C=C/C=C/CC/C=C/C=C/C=C/C=C/C(O[C@H]2O[C@H](C)[C@@H](O)[C@H](N)[C@@H]2O)CC2O[C@](O)(CC(O)C(O)CCC(O)CC(O)CC(O)CC(=O)O[C@H]1C)CC(O)C2C(=O)O (stereo partly shown) [NSC150817],68.70
3,COc1cc2cc(c1Cl)N(C)C(=O)C[C@H](OC(=O)[C@H](C)N(C)C(C)=O)[C@]1(C)O[C@H]1[C@H](C)[C@@H]1C[C@@](O)(NC(=O)O1)[C@H](OC)/C=C/C=C(\C)C2 [NSC153858],76.02
4,COC(=O)[C@H]1[C@H](O)[C@H](C)[C@@H](O)[C@](C)(O)/C=C(\C)C2=C3C(=C(C)C(=O)c4c(O)c(c(C)c(OC(C)=O)c43)NC(=O)/C(C)=C/C=C\[C@](C)(O)[C@@H](O)[C@@H](C)[C@H]1O)OCO2 [NSC156219],73.43
5,CC1=CC(=O)C2=C(C)CCC3C(C)C(=O)OC3C12 (stereo not shown) [NSC156236],75.72
6,C=C1C(=O)O[C@H]2[C@H]1CC/C(C)=C/CC[C@@]1(C)O[C@@H]21 [NSC157035],97.44
7,CC1=CC2=C(C=O)C(=O)[C@](C)(O)[C@@H](O)C2=CO1 [NSC159632],82.72
8,COC(=O)[C@@]12OC[C@]34[C@H]([C@@H](O)[C@@H]1O)[C@@]1(C)CC(=O)C(O)=C(C)[C@@H]1C[C@H]3OC(=O)[C@H](OC(=O)/C=C(\C)C(C)C)[C@@H]24 [NSC165563],97.95
9,COC1=CC(=O)C(C2CC(=O)c3c(O)cc(O)cc3O2)=CC1=O (stereo not shown) [NSC169517],98.58
10,COC(=O)C1C(O)C(C)C(O)OC1C(C)C(O)C(C)C=CC=C(C)C(=O)Nc1c(C)c(OC(C)=O)c2c(c1O)C(=O)C(C)=C1OCOC(C(C)=CC(C)=O)=C12 (stereo not shown) [NSC169627],26.60
11,C=C(NC(=O)C(=C)NC(=O)c1csc(C2=NC3c4csc(n4)C4NC(=O)c5csc(n5)C(C(C)(O)C(C)O)NC(=O)C5CSC(=N5)/C(=C\C)NC(=O)C(C(C)O)NC(=O)c5csc(n5)C3(CC2)NC(=O)C(C)NC(=O)C(=C)NC(=O)C(C)NC(=O)C(C(C)CC)NC2C=Cc3c(C(C)O)cc(nc3C2O)C(=O)OC4C)n1)C(N)=O (stereo not shown) [NSC170365],53.53
12,COC(=O)[C@@]12OC[C@]34[C@H]([C@@H](O)[C@@H]1O)[C@@]1(C)CC(=O)C(O)=C(C)[C@@H]1C[C@H]3OC(=O)[C@H](OC(=O)C=C(C)C)[C@@H]24 [NSC172924],122.74
13,CC(C)=CC(=O)O[C@H]1[C@H]2[C@H](OC(=O)[C@H]2C)[C@H](O)[C@@H](C)[C@@H]2C=CC(=O)[C@]21C [NSC176503],99.27
14,CO[C@@H]1/C=C/O[C@@]2(C)Oc3c(C)c(O)c4c(c3C2=O)C(=N[C@@H]2CC[C@@H](O)O[C@H]2C)C=C(NC(=O)/C(C)=C\C(=O)[C@@H]2C[C@@H]2[C@H](O)[C@@H](C)[C@@H](O)[C@@H](C)[C@H](OC(C)=O)[C@@H]1C)C4=O [NSC177383],103.89
15,CCC(C(=O)C(C)C(O)C(C)CCc1ccc(C)c(O)c1C(=O)O)C1OC(CC)(C2CCC(O)(CC)C(C)O2)CC1C (stereo not shown) [NSC177406],94.24
16,CC[C@H]1NC(=O)[C@@H](NC(=O)c2ncccc2O)[C@@H](C)OC(=O)[C@H](c2ccccc2)NC(=O)[C@@H]2CC(=O)CCN2C(=O)[C@H](Cc2ccccc2)N(C)C(=O)[C@@H]2CCCN2C1=O [NSC177858],35.20
17,COc1ccc(O)c2c(=O)c3c(OC)cc4c(c3oc12)[C@@H]1C=CO[C@@H]1O4 [NSC178249],73.18
18,CC1=C(C)C(=O)O[C@@H]([C@](C)(O)[C@]2(O)CC[C@@]3(O)[C@@H]4C[C@H]5O[C@]56CC=CC(=O)[C@]6(C)[C@H]4CC[C@]23C)C1 [NSC179834],38.70
19,CC(=O)C1CCCC(=O)/C=C/C(=O)O1 (stereo not shown) [NSC180515],108.07
20,C=C1CCO[C@]2([C@@H](O)[C@@](C)(O)CO)NC(=O)[C@@]1(O)NC2=O [NSC180516],114.16
21,C[C@H]1O[C@@H](c2ccc3c(c2O)C(=O)C2=C(C3=O)[C@@]3(O)C(=O)C[C@](C)(O)C[C@@]3(O)C=C2)C[C@@H](O)[C@@H]1O [NSC184398],10.15
22,CC[C@H]1OC(=O)[C@H](C)[C@@H](O[C@H]2C[C@@](C)(O)[C@@H](O)[C@H](C)O2)[C@H](C)[C@@H](O)[C@](C)(O)C[C@@H](C)C(=O)[C@H](C)[C@@H](O)[C@H]1C [NSC209870],103.21
23,C=C1C(=O)OC2CC1C(O)C/C(C)=C/CC/C(C)=C/C(O)CC2C (stereo not shown) [NSC210236],107.44
24,C[C@@H]1C[C@H](C)C[C@H](C)[C@@H](O)CC(=O)O[C@H]([C@@H]2CCC[C@H]2C(=O)O)C/C=C/C=C(/C#N)[C@H](O)[C@@H](C)C1 [NSC216128],89.16

row,Compound,IN-GCN2 interaction (%)
1,CO[C@H]1C[C@@H]2CC[C@@H](C)[C@@](O)(O2)C(=O)C(=O)N2CCCC[C@H]2C(=O)O[C@H]([C@H](C)C[C@@H]2CC[C@@H](O)[C@H](OC)C2)CC(=O)[C@H](C)/C=C(\C)[C@@H](O)[C@@H](OC)C(=O)[C@H](C)C[C@H](C)/C=C/C=C/C=C/1C [NSC226080],54.18
2,CO[C@@H]1[C@@H](OC(=O)c2ccc(C)[nH]2)[C@@H](O)[C@H](Oc2ccc3c(O)c(NC(=O)c4ccc(O)c(CC=C(C)C)c4)c(=O)oc3c2Cl)OC1(C)C [NSC227186],36.34
3,CC[C@H](C)[C@@H]1NC(=O)[C@@H]2CCCN2C(=O)[C@@H](CC(C)C)OC(=O)CCNC(=O)[C@H](C)N(C)C(=O)[C@H](C(C)C)N(C)C1=O [NSC236580] (cyclo([dHica]PI[NMeV][NMeA][βAla])),98.06
4,CO/N=C1\CC(C)N2C(=O)C(C(C)C)NC(=O)C(NC(=O)c3c4nc5c(C(=O)NC6C(=O)NC(C(C)C)C(=O)N7C(C)CC(O)C7C(=O)N(C)CC(=O)N(C)C(C(C)C)C(=O)OC6C)ccc(C)c5oc-4c(C)c(=O)c3N)C(CO)OC(=O)C(C)N(C)C(=O)CN(C)C(=O)C12 (stereo not shown) [NSC237671],81.33
5,CCCCCCCCCC[C@H](C(=O)O)[C@]1(C(=O)O)CCC(=O)O1 [NSC244387],146.01
6,C/C=C\C(C)=C\[C@H](C)C(=O)C[C@H](O)CC1CC(=O)NC(=O)C1 [NSC248958],116.00
7,CC1CC(O)C2C3(C)CCCC2(COC3=O)C12CCC1(CCOC1=O)O2 (stereo not shown) [NSC250429],134.45
8,COc1c2c(cc3c1C1Oc4c(ccc(O)c4CC=C(C)C)C1CO3)OC(C)(C)C=C2 (stereo not shown) [NSC250430],16.46
9,C=C1C(=O)[C@]23[C@H](O)[C@H]1CC[C@H]2[C@@]12CO[C@]3(O)[C@@H](O)[C@@H]1C(C)(C)CC[C@@H]2O [NSC250682],99.31
10,CO[C@H]1/C=C\C=C(/C)C(=O)NC2=CC(=O)C(N)=C(C[C@@H](C)C[C@H](OC)[C@H](O)[C@@H](C)/C=C(\C)[C@@H]1OC(N)=O)C2=O [NSC255109],108.78
11,COC1=C2CC(C)CC(OC)C(O)C(C)/C=C(\C)C(OC(N)=O)C(OC)/C=C\C=C(/C)C(=O)NC(=C(/C=N/N3CCOCC3)C1=O)C2=O (stereo not shown) [NSC255112],78.82
12,COc1ccc(CC2C(=O)NC(C)C(=O)N(C)C3C(=O)N(C)C(Cc4ccc(O)c(c4)Oc4ccc(cc4)C3O)C(=O)NC(C)C(=O)NC(C)C(=O)N2C)cc1 (stereo not shown) [NSC259968],109.81
13,CCCCCC[C@@H]([C@@H](C)O)n1cnc2c(N)ncnc21 [NSC263164],111.18
14,CCC1(O)CC(OC2CC(N(C)C)C(OC3CC(O)C(OC4CC(O)C(O)C(C)O4)C(C)O3)C(C)O2)c2c(cc3c(c2O)C(=O)c2c(O)ccc(O)c2C3=O)C1C(=O)OC (stereo not shown) [NSC265211],39.6
15,COC1C(C)OC(OC2CC(C)(O)Cc3cc4c(c(O)c32)C(=O)c2c(O)cc3c(c2C4=O)OC2OC3(C)C(O)C(N(C)C)C2O)C(OC)C1(C)OC (stereo not shown) [NSC265450],99.51
16,O=C1C=C[C@H](O)[C@@]2(CO)O[C@@H]12 [NSC266032],108.08
17,CC(=O)OC1C(OC(C)=O)C2C(C)CC3OC(=O)C(C)C3CC2(C)C1OC(C)=O (stereo not shown) [NSC266071],100.86
18,O=C1N[C@@H]2C(=C[C@H](O)[C@@H](O)[C@H]2O)c2cc3c(c(O)c21)OCO3 [NSC266535],138.97
19,CO[C@@H]1C[C@](C)(O)Cc2cc3c(c(O)c21)C(=O)c1c(O)cc2c(c1C3=O)O[C@@H]1O[C@@]2(C)[C@H](O)[C@@H](N(C)C)[C@@H]1O [NSC269148],113.29
20,CC(=O)O[C@@H]1[C@@H](O)C2=C3[C@]4(C)[C@@H]1C(C)(C)C(=O)C[C@@H]4[C@]3(O)[C@H](OC(C)=O)[C@@]1(C[C@@H]1C)C2=O [NSC270914],122.29
21,Cc1c(N)nc([C@H](CC(N)=O)NC[C@H](N)C(N)=O)nc1C(=O)N[C@H](C(=O)N[C@H](C)[C@@H](O)[C@H](C)C(=O)N[C@H](C(=O)NCCc1nc(-c2nc(C(=O)NCCCN[C@@H](C)c3ccccc3)cs2)cs1)[C@@H](C)O)[C@@H](O[C@@H]1O[C@@H](CO)[C@@H](O)[C@H](O)[C@@H]1O[C@H]1O[C@H](CO)[C@@H](O)[C@H](OC(N)=O)[C@@H]1O)c1cnc[nH]1 [NSC276382],37.70
22,C[C@@H](N)C(=O)NC(CO)C(O)C(N)C=O.Cl (stereo partly shown) [NSC278619],77.59
23,CC[C@H](C)C(=O)O[C@H]1CCC=C2C=C[C@H](C)[C@H](CC[C@@H]3C[C@@H](O)CC(=O)O3)[C@H]21 [NSC281245],54.75
24,CCCCCCCCCCCCCCCCCCOCC(O)CO (stereo not shown) [NSC284200],138.26

# Same assay, conditions: screen, single dose 100 µM, single replicate; residual AlphaLISA signal normalized to DMSO control; listed as 265211
row,Compound,IN-GCN2 interaction (%)
1,CCC1(O)CC(OC2CC(N(C)C)C(OC3CC(O)C(OC4CC(O)C(O)C(C)O4)C(C)O3)C(C)O2)c2c(cc3c(c2O)C(=O)c2c(O)ccc(O)c2C3=O)C1C(=O)OC (stereo not shown) [NSC265211],39.59
